Experimental data reported in PubChem BioAssay AID1963848 (Molecular Pharmacology Branch, DTP, NCI, 2024).

System: 379773-124-R-J2-PDC spheroid viability
Assay: Anticancer human tumor 379773-124-R-J2-PDC patient-derived endometrial carcinoma cell line growth inhibition [POLQ]
Details: spheroids with HUVEC and MSC; for IC50: curve of first compound; for viability, T/C: stronger effect = lower value; active = viability on the fitted dose curve at most 10% of control; inactive = the rest
Summary of the method: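 Patient-derived tumour cells were co-cultured with HUVEC and mesenchymal stem cells as multicellular spheroids at 37 °C. They were treated with POLQ inhibitors (novobiocin, ART-558, RP6685) alone or combined with other agents. Top concentrations were at or near clinical Cmax (otherwise 10 microM; SN-38 at 1 microM), decreasing in half-log steps.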

[1] = second compound 0.0316 µM, first compound 0.0316 µM
[2] = second compound 0.0316 µM, first compound 0.1 µM
[3] = second compound 0.1 µM, first compound 0.0316 µM
[4] = second compound 0.1 µM, first compound 0.1 µM
[5] = second compound 0.316 µM, first compound 0.0316 µM
[6] = second compound 0.316 µM, first compound 0.1 µM
[7] = second compound 1 µM, first compound 0.0316 µM
[8] = second compound 1 µM, first compound 0.1 µM
[9] = second compound 3.16 µM, first compound 0.0316 µM
[10] = second compound 3.16 µM, first compound 0.1 µM
[11] = second compound 10 µM, first compound 0.0316 µM
[12] = second compound 10 µM, first compound 0.1 µM
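Also: spheroids exposed to drugs for seven days before readout.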
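For viability, T/C in this document: percent viability relative to DMSO vehicle control taken as 100%.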

CNCc1ccc(-c2[nH]c3cc(F)cc4c3c2CCNC4=O)cc1 + COC1C(OC(N)=O)C(O)C(Oc2ccc3c(O)c(NC(=O)c4ccc(O)c(CC=C(C)C)c4)c(=O)oc3c2C)OC1(C)C
> 10000 nM: IC50 (second compound 0.0316 µM) | IC50 (second compound 0.1 µM) | IC50 (second compound 0.316 µM) | IC50 (second compound 1 µM) | IC50 (second compound 3.16 µM) | IC50 (second compound 10 µM)
inactive: viability, T/C [1] 104% | viability, T/C [2] 86.1% | viability, T/C (second compound 0.0316 µM, first compound 0.316 µM) 84.5% | viability, T/C (second compound 0.0316 µM, first compound 1 µM) 74.5% | viability, T/C (second compound 0.0316 µM, first compound 3.16 µM) 82.5% | viability, T/C (second compound 0.0316 µM, first compound 10 µM) 78.1% | viability, T/C [3] 102% | viability, T/C [4] 86.7% | viability, T/C (second compound 0.1 µM, first compound 0.316 µM) 90.5% | viability, T/C (second compound 0.1 µM, first compound 1 µM) 88.2% | viability, T/C (second compound 0.1 µM, first compound 3.16 µM) 87.8% | viability, T/C (second compound 0.1 µM, first compound 10 µM) 82.9% | viability, T/C [5] 95.5% | viability, T/C [6] 96.8% | viability, T/C (second compound 0.316 µM, first compound 0.316 µM) 87.8% | viability, T/C (second compound 0.316 µM, first compound 1 µM) 93.2% | viability, T/C (second compound 0.316 µM, first compound 3.16 µM) 77.2% | viability, T/C (second compound 0.316 µM, first compound 10 µM) 78.4% | viability, T/C [7] 91.8% | viability, T/C [8] 98.2% | viability, T/C (second compound 1 µM, first compound 0.316 µM) 78.1% | viability, T/C (second compound 1 µM, first compound 1 µM) 86.1% | viability, T/C (second compound 1 µM, first compound 3.16 µM) 82.6% | viability, T/C (second compound 1 µM, first compound 10 µM) 67.3% | viability, T/C [9] 79.8% | viability, T/C [10] 79.9% | viability, T/C (second compound 3.16 µM, first compound 0.316 µM) 76.2% | viability, T/C (second compound 3.16 µM, first compound 1 µM) 85.1% | viability, T/C (second compound 3.16 µM, first compound 3.16 µM) 80.1% | viability, T/C (second compound 3.16 µM, first compound 10 µM) 78.3% | viability, T/C [11] 80.3% | viability, T/C [12] 81.7% | viability, T/C (second compound 10 µM, first compound 0.316 µM) 96.5% | viability, T/C (second compound 10 µM, first compound 1 µM) 75.5% | viability, T/C (second compound 10 µM, first compound 3.16 µM) 76.7% | viability, T/C (second compound 10 µM, first compound 10 µM) 65.7%

CC[C@@]1(O)C(=O)OCc2c1cc1n(c2=O)Cc2cc3c(CN(C)C)c(O)ccc3nc2-1 + Nc1ccc(C#CCN(C(=O)Cc2ncc(C(F)(F)F)cc2C(F)(F)F)c2ccc(F)cc2)nn1
29 nM: IC50 (second compound 0.1 µM)
26.4 nM: IC50 (second compound 1 µM)
22.5 nM: IC50 (second compound 10 µM)
29.5 nM: IC50 (second compound 0.0316 µM)
24.5 nM: IC50 (second compound 3.16 µM)
inactive: viability, T/C (second compound 0.0316 µM, first compound 0.000316 µM) 96.7% | viability, T/C (second compound 0.0316 µM, first compound 0.001 µM) 89% | viability, T/C (second compound 0.0316 µM, first compound 0.00316 µM) 80.7% | viability, T/C (second compound 0.0316 µM, first compound 0.01 µM) 96% | viability, T/C [1] 47.3% | viability, T/C [2] 22.3% | viability, T/C (second compound 0.1 µM, first compound 0.000316 µM) 90.8% | viability, T/C (second compound 0.1 µM, first compound 0.001 µM) 87.6% | viability, T/C (second compound 0.1 µM, first compound 0.00316 µM) 91.4% | viability, T/C (second compound 0.1 µM, first compound 0.01 µM) 89.6% | viability, T/C [3] 46.7% | viability, T/C [4] 19.8% | viability, T/C (second compound 0.316 µM, first compound 0.000316 µM) 93% | viability, T/C (second compound 0.316 µM, first compound 0.001 µM) 96.3% | viability, T/C (second compound 0.316 µM, first compound 0.00316 µM) 102% | viability, T/C (second compound 0.316 µM, first compound 0.01 µM) 86.2% | viability, T/C [5] 42.6% | viability, T/C [6] 20.8% | viability, T/C (second compound 1 µM, first compound 0.000316 µM) 100% | viability, T/C (second compound 1 µM, first compound 0.001 µM) 92% | viability, T/C (second compound 1 µM, first compound 0.00316 µM) 92.2% | viability, T/C (second compound 1 µM, first compound 0.01 µM) 83.7% | viability, T/C [7] 43.6% | viability, T/C [8] 21.2% | viability, T/C (second compound 3.16 µM, first compound 0.000316 µM) 110% | viability, T/C (second compound 3.16 µM, first compound 0.001 µM) 90.5% | viability, T/C (second compound 3.16 µM, first compound 0.00316 µM) 85.8% | viability, T/C (second compound 3.16 µM, first compound 0.01 µM) 85.1% | viability, T/C [9] 39.6% | viability, T/C [10] 18.9% | viability, T/C (second compound 10 µM, first compound 0.000316 µM) 94% | viability, T/C (second compound 10 µM, first compound 0.001 µM) 79.9% | viability, T/C (second compound 10 µM, first compound 0.00316 µM) 81.9% | viability, T/C (second compound 10 µM, first compound 0.01 µM) 83.3% | viability, T/C [11] 36% | viability, T/C [12] 21.8%
26 nM: IC50 (second compound 0.316 µM)
